In brackets after ≈: the same amount, converted by molar mass. Read-outs that look alike come from different tables or passages of the source.
Key:
[1] = cited from earlier work
[2] = solubility in solvents (ethanol, methanol, water, n-hexane); type: physicochemical; conditions: salt of the invention
[3] = system: cell lines of glioblastoma multiforme; conditions: published results; cited from earlier work
[4] = system: cell lines of ovarian carcinoma; conditions: published results; cited from earlier work
[5] = literature value (J Pharm Sci 94(5), 2005)

With CCC[S+]([O-])c1ccc2[nH]c(NC(=O)OC)nc2c1 (centres unmarked) [ABZ-SO, Albendazole sulphoxide] as the compound, how does the solubility in ethanol [1, 5] read?
The solubility in ethanol was 1.36 mg/mL (≈ 4830 µM).

And the solubility in ethanol ([1]; non-salified sulphoxide, stated as known)?
Its solubility in ethanol is “circa 1 mg mL^−1”.

What about the solubility in methanol ([1]; methanol, in words) of the same compound?
The solubility in methanol was “slightly soluble”.

What about the solubility in n-hexane ([1]; n-hexane, in words) of the same compound?
The solubility in n-hexane was “practically insoluble”.

And the solubility in water ([1]; in words)?
The solubility in water was “practically insoluble”.

What about the solubility in water ([1]; in words, listed as RBZ) of the same compound?
Its solubility in water is “poorly soluble”.

What about the solubility in water [1, 5] of the same compound?
Its solubility in water is 0.062 mg/mL (≈ 220 µM).

With CCC[S+]([O-])c1ccc2[n-]c(NC(=O)OC)nc2c1.[Na+] (centres unmarked) [ABZ-SO—Na] as the compound, how does the solubility in ethanol ([2]; ethanol) read?
The solubility in ethanol was “about 30 mg mL^−1”.

And the solubility in methanol ([2]; methanol)?
Its solubility in methanol is “about 30 mg mL^−1”.

With COC(=O)Nc1nc2ccc(C(=O)c3ccccc3)cc2[nH]1 [MBZ, mebendazole] as the compound, how does the cytotoxicity [3] read?
Its cytotoxicity is “demonstrated cytotoxicity”.

What about the cytotoxicity [4] of the same compound?
Its cytotoxicity is “demonstrated cytotoxicity”.
